Experimental data taken from patent publication US20220031607A1, “INJECTION COMPOSITION CONTAINING FAB I INHIBITOR, AND PREPARATION METHOD THEREFOR” (CRYSTALGENOMICS, INC., priority 2019, published 2022).
Converted amounts (≈) assume the structure as drawn. Like-named read-outs stand apart in the source and are kept apart here.

Key:
Type in all cases: cell-based
[1] = tested on: Methicillin-susceptible Staphylococcus aureus strains; assay: Drug susceptibility (MIC) of methicillin-susceptible clinical isolates
Method: (§1) In order to verify the inhibitory effect of the compound of formula 1 on antibiotic-resistant strains, drug susceptibility was evaluated by treating the compound of formula 1 with Staphylococcus aureus phenotype isolated from each patient. In an in vitro test for antibiotic development, the most important result can be MIC90 (minimum inhibitory concentration required to inhibit the growth of 90% of the total bacterial population). […] Appelbaum at Hershey Hospital who is recognized for its authority in the field of anti-infection worldwide.

[2] = tested on: Methicillin-resistant Staphylococcus aureus (MRSA) strains; assay: Drug susceptibility (MIC) of MRSA clinical isolates
Method: as §1

[3] = tested on: Staphylococcus aureus 13B-382 (MRSA, clinical strain); assay: Susceptibility test (MIC), clinical strain
Method: (§2) For the compound of formula 1, pharmacokinetic/pharmacodynamic experiments were conducted using a mouse infection model. To this end, experiments were conducted with Staphylococcus aureus ATCC 29213 (MSSA, standard strain) and 13B-382 (MRSA, clinical strain). As a medium, Mueller-Hinton broth or Cation-adjusted Mueller-Hinton broth was used. For the susceptibility test (minimum inhibitory concentration (MIC)), the compound of formula 1 was used.

[4] = tested on: Staphylococcus aureus ATCC 29213 (MSSA, standard strain); assay: Susceptibility test (MIC), standard strain
Method: as §2

[5] = Staphylococcus aureus, Methicillin-susceptible, n = 103, read-out: MIC50
[6] = Staphylococcus aureus, Methicillin-susceptible, n = 103, read-out: MIC90
[7] = Staphylococcus aureus, MRSA, Methicillin-resistant, n = 100, read-out: MIC50
[8] = Staphylococcus aureus, MRSA, Methicillin-resistant, n = 100, read-out: MIC90
[9] = Methicillin-susceptible, n = 103

CC[C@H]1OC(=O)[C@H](C)[C@@H](O[C@H]2C[C@@](C)(OC)[C@@H](O)[C@H](C)O2)[C@H](C)[C@@H](O[C@@H]2O[C@H](C)C[C@H](N(C)C)[C@H]2O)[C@](C)(O)C[C@@H](C)CN(C)[C@H](C)[C@@H](O)[C@]1(C)O [Azithromycin]
MIC50 [1, 5]: 1 µg/mL (≈ 1.34 µM)
MIC90 [1, 6]: > 64 µg/mL
MIC50 [2, 7]: > 64 µg/mL
MIC90 [2, 8]: > 64 µg/mL

CCCCCCCCCC(=O)N[C@@H](Cc1c[nH]c2ccccc12)C(=O)N[C@H](CC(N)=O)C(=O)N[C@@H](CC(=O)O)C(=O)N[C@@H]1C(=O)NCC(=O)N[C@@H](CCCN)C(=O)N[C@@H](CC(=O)O)C(=O)N[C@H](C)C(=O)N[C@@H](CC(=O)O)C(=O)NCC(=O)N[C@H](CO)C(=O)N[C@@H]([C@H](C)CC(=O)O)C(=O)N[C@@H](CC(=O)c2ccccc2N)C(=O)O[C@@H]1C [Daptomycin]
MIC Range [1, 9]: 0.25 to 2.0 µg/mL
MIC50 [1, 5]: 1 µg/mL (≈ 0.617 µM)
MIC90 [1, 6]: 1 µg/mL (≈ 0.617 µM)
MIC Range ([2]; Methicillin-resistant, n = 100): 0.25 to 4.0 µg/mL
MIC50 [2, 7]: 0.5 µg/mL (≈ 0.309 µM)
MIC90 [2, 8]: 0.5 µg/mL (≈ 0.309 µM)

C[C@H]1COc2c(N3CCN(C)CC3)c(F)cc3c(=O)c(C(=O)O)cn1c23 [Levofloxacin]
MIC Range [1, 9]: ≤0.06 to 32.0 µg/mL
MIC50 [1, 5]: 0.25 µg/mL (≈ 0.692 µM)
MIC90 [1, 6]: 4 µg/mL (≈ 11.1 µM)
MIC50 [2, 7]: 1 µg/mL (≈ 2.77 µM)
MIC90 [2, 8]: > 32 µg/mL

CC(=O)NC[C@H]1CN(c2ccc(N3CCOCC3)c(F)c2)C(=O)O1 [Linezolid]
MIC Range [1, 9]: 0.25 to 2.0 µg/mL
MIC50 [1, 5]: 1 µg/mL (≈ 2.96 µM)
MIC90 [1, 6]: 2 µg/mL (≈ 5.93 µM)
MIC Range ([2]; Methicillin-resistant, n = 100): 0.25 to 2.0 µg/mL
MIC50 [2, 7]: 1 µg/mL (≈ 2.96 µM)
MIC90 [2, 8]: 2 µg/mL (≈ 5.93 µM)

Cc1onc(-c2ccccc2)c1C(=O)N[C@@H]1C(=O)N2[C@@H]1SC(C)(C)[C@@H]2C(=O)O [Oxacillin]
MIC ([3]; Staphylococcus aureus 13B-382, read-out: MIC): 16 µg/mL (≈ 39.9 µM)
MIC ([4]; Staphylococcus aureus ATCC 29213, read-out: MIC): 0.25 µg/mL (≈ 0.623 µM)

CN[C@H](CC(C)C)C(=O)N[C@H]1C(=O)N[C@@H](CC(N)=O)C(=O)N[C@H]2C(=O)N[C@H]3C(=O)N[C@H](C(=O)N[C@H](C(=O)O)c4cc(O)cc(O)c4-c4cc3ccc4O)[C@H](O)c3ccc(c(Cl)c3)Oc3cc2cc(c3O[C@@H]2O[C@H](CO)[C@@H](O)[C@H](O)[C@H]2O[C@H]2C[C@](C)(N)[C@H](O)[C@H](C)O2)Oc2ccc(cc2Cl)[C@H]1O [Vancomycin]
MIC Range [1, 9]: 1.0 to 2.0 µg/mL
MIC50 ([1]; Staphylococcus aureus): 1 µg/mL (≈ 0.69 µM)
MIC90 ([1]; Staphylococcus aureus): 2 µg/mL (≈ 1.38 µM)
MIC50 ([2]; Staphylococcus aureus, MRSA): 1 µg/mL (≈ 0.69 µM)
MIC90 ([2]; Staphylococcus aureus, MRSA): 2 µg/mL (≈ 1.38 µM)
MIC ([2]; Staphylococcus aureus, MRSA / VRSA): > 64 µg/mL
MIC ([3]; Staphylococcus aureus): 1 µg/mL (≈ 0.69 µM)
MIC ([4]; Staphylococcus aureus): 0.5 µg/mL (≈ 0.345 µM)

Teicoplanin
MIC50 [1, 9]: 1 µg/mL
MIC90 [1, 9]: 2 µg/mL
MIC Range [1, 9]: 0.125 to 8.0 µg/mL
MIC50 ([2]; Methicillin-resistant, n = 100): 1 µg/mL
MIC90 ([2]; Methicillin-resistant, n = 100): 2 µg/mL
